The source of these data is patent US20250034170A1, “SMALL MOLECULE MODULATORS OF GLUCOCEREBROSIDASE ACTIVITY AND USES THEREOF” (Vanqua Bio, Inc., priority 2021, published 2025).

Each structure is given as a SMILES string.

This assay concerns the target T1, GCase (Homo sapiens, UniProt P04062).
T1 construct: endogenous in cells; host or cells: HeLa cells
T1 sequence (P04062 40-536): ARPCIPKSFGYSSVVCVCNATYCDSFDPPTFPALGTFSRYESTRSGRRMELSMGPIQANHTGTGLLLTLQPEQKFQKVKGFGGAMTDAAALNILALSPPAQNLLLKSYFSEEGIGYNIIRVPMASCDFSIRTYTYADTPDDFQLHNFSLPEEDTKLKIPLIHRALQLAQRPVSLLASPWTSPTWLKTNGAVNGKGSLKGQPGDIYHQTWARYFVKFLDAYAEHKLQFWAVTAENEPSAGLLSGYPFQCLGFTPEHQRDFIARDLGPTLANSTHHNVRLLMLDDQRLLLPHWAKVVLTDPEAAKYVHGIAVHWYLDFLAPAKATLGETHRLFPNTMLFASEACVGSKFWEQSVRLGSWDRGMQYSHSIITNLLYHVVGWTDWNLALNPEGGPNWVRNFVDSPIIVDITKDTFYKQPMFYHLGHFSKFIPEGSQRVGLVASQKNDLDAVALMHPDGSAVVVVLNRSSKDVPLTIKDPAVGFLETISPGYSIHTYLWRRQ
Briefly: activation of GCase in a live cell PFB assay in HELA cells. The class given is cell-based. Conditions: activation of GCase, EC50 ranges. As to the method:
Exemplary compounds were evaluated for activation of GCase in a live cell PFB assay in HELA cells (essentially as described in Ysselstein et al., “LRRK2 kinase activity regulates lysosomal glucocerebrosidase in neurons derived from Parkinson's disease patients” Nature Communications (2019) 10:5570). […] EC50 ranges: A: <10 μM; B: >10-50 μM; C: >50-100 μM; D: >100 μM.
For `Cn1c(N2CCC3(CCN(c4ncc(C(F)(F)F)cn4)C3)CC2)nc2c(cnn2C2COC2)c1=O` [Cmpd 1058], the EC50 is 10 to 50 µM. Compound `Cn1c(N2CCC3(CCN(c4ccnc(C(F)(F)F)c4)C3)CC2)nc2c(cnn2C2COC2)c1=O` [Cmpd 1059] registered an EC50 of under 10 µM.

`Cn1c(N2CCC3(CCN(c4ccnc(C(F)(F)F)n4)C3)CC2)nc2c(cnn2C2COC2)c1=O` [Cmpd 1060]: the EC50 is under 10 µM. Consider `O=C([C@H]1CCn2c1nccc2=O)N1CCC2(C1)CN(c1ccnc(C(F)(F)F)c1)C2` [Cmpd 1061], for which the EC50 fell in the range of 50 to 100 µM. In turn, `FC(F)c1nnc(-c2cncc(N3CCC4(CN(c5ccnc(C(F)(F)F)c5)C4)C3)n2)s1` [Cmpd 1062] registered an EC50 of 10 to 50 µM. `Cc1nc(N2CC3(CCN(c4cnc5cnn(C6COC6)c5n4)C3)C2)cc(C(F)(F)F)n1` [Cmpd 1063]: the EC50 is 10 to 50 µM. Under `CCc1nn(CC(F)F)c2nc(N3CCC4(CN(c5cc(C(F)(F)F)nc(C)n5)C4)C3)cnc12` [Cmpd 1064] stands 10 to 50 µM; under `CCc1nn(C2COC2)c2nc(N3CCC4(CN(c5cc(C(F)(F)F)nc(C)n5)C4)C3)cnc12` [Cmpd 1065], 10 to 50 µM; under `CCc1nn(CC(F)F)c2nc(N3CCC4(CN(c5cc(C(F)(F)F)nc(C)n5)C4)C3)ncc12` [Cmpd 1066], 10 to 50 µM. On to `CCc1nn(C2COC2)c2nc(N3CCC4(CN(c5cc(C(F)(F)F)nc(C)n5)C4)C3)ncc12` [Cmpd 1067], for which the EC50 was under 10 µM. `CCc1nn(CC(F)F)c2nc(N3CCC4(CN(c5ccnc(C(F)(F)F)c5)C4)C3)cnc12` [Cmpd 1068] came in with an EC50 of 10 to 50 µM. The value for `CCc1nn(C2COC2)c2nc(N3CCC4(CN(c5ccnc(C(F)(F)F)c5)C4)C3)cnc12` [Cmpd 1069] was 10 to 50 µM; that for `CCc1nn(C2COC2)c2nc(N3CCC4(CN(c5ccnc(C(F)(F)F)c5)C4)C3)ncc12` [Cmpd 1070] was under 10 µM; that for `CCc1nn(CC(F)F)c2nc(N3CCC4(CN(c5ccnc(C(F)(F)F)c5)C4)C3)ncc12` [Cmpd 1071] was under 10 µM. Compound `FC(F)Cn1ncc2cnc(N3CCC4(CN(c5ccnc(C(F)(F)F)c5)C4)C3)cc21` [Cmpd 1072] registered an EC50 of 10 to 50 µM. For `FC(F)Cn1ncc2ccc(N3CCC4(CN(c5ccnc(C(F)(F)F)c5)C4)C3)nc21` [Cmpd 1073], the EC50 was under 10 µM.

With `CCn1c(=O)n(CC(F)F)c2nc(N3CCC4(CN(c5cc(C(F)(F)F)nc(C)n5)C4)C3)cnc21` [Cmpd 1074], the EC50 was under 10 µM. Under `CCn1c(=O)n(CC(F)F)c2ncc(N3CCC4(CN(c5cc(C(F)(F)F)nc(C)n5)C4)C3)nc21` [Cmpd 1075] stands 10 to 50 µM. Under `Cc1cc(N2CC3(CCN(c4ncc5cnn(CC(C)(F)F)c5n4)C3)C2)nc(C(F)(F)F)n1` [Cmpd 1076] stands 10 to 50 µM; under `Cc1nc(N2CC3(CCN(c4cnc5c(n4)n(CC(F)F)c(=O)n5C)C3)C2)cc(C(F)(F)F)n1` [Cmpd 1077], under 10 µM. `Cc1nc(N2CC3(CCN(c4cnc5c(n4)n(C)c(=O)n5CC(F)F)C3)C2)cc(C(F)(F)F)n1` [Cmpd 1078] came in with an EC50 of under 10 µM. In turn, `Cc1nc(N2CC[C@]3(CCN(c4ncc5c(C)nn(C6COC6)c5n4)C3)C2)cc(C(F)(F)F)n1` [Cmpd 1079] had an EC50 of 10 to 50 µM. `Cc1nc(N2CC[C@@]3(CCN(c4ncc5c(C)nn(C6COC6)c5n4)C3)C2)cc(C(F)(F)F)n1` [Cmpd 1080] had an EC50 of 10 to 50 µM. Under `CCn1c(=O)n(CC(F)F)c2nc(N3CCC4(CN(c5cc(C(F)(F)F)nc(C)n5)C4)C3)ncc21` [Cmpd 1081] stands under 10 µM; under `Cc1nc(N2CC3(CCN(c4ncc5c(n4)n(CC(F)F)c(=O)n5C)C3)C2)cc(C(F)(F)F)n1` [Cmpd 1082], under 10 µM; under `CCn1c(=O)n(CC(F)F)c2nc(N3CCC4(C3)CN(c3cnc(C)nc3C(F)(F)F)C4)ncc21` [Cmpd 1083], 10 to 50 µM. Take `Cc1nc(N2CC3(CCN(c4nc5c(cnn5CC(F)F)c(=O)n4C)C3)C2)cc(C(F)(F)F)n1` [Cmpd 1084]: the EC50 was under 10 µM. `CCn1c(=O)n(CC(F)F)c2nc(N3CCC4(CC3)CCN(c3cnc(C(F)(F)F)nc3C)C4)cnc21` [Cmpd 1085]: the EC50 was under 10 µM. `Cc1nc(C(F)(F)F)ncc1N1CCC2(CCN(c3nc4c(cnn4CC(F)F)c(=O)n3C)CC2)C1` [Cmpd 1086] returned an EC50 of 10 to 50 µM.

`Cc1cc(N2CCC3(CCN(c4nc5c(cnn5CC(F)F)c(=O)n4C)CC3)C2)nc(C(F)(F)F)n1` [Cmpd 1087] showed an EC50 of under 10 µM. As to `CC(F)(F)c1ncc(N2CC3(CCN(c4cnc5cnn(CC(F)F)c5n4)C3)C2)cn1` [Cmpd 1088], the concentration giving a half-maximal response (EC50) is under 10 µM.

`CCc1nc(N2CC3(CCN(c4cnc5cnn(CC(F)F)c5n4)C3)C2)cc(C(F)(F)F)n1` [Cmpd 1089]: the EC50 fell in the range of 10 to 50 µM. For `FC(F)(F)c1cc(N2CC3(CCN(c4cnc5cnn(C6CCOCC6)c5n4)C3)C2)ccn1` [Cmpd 1090], the EC50 is over 100 µM. Regarding `FC(F)(F)c1cc(N2CC3(CCN(c4cnc5cnn([C@@H]6CCOC6)c5n4)C3)C2)ccn1` [Cmpd 1091], the EC50 was over 100 µM. The value for `FC(F)(F)c1cc(N2CC3(CCN(c4cnc5cnn([C@H]6CCOC6)c5n4)C3)C2)ccn1` [Cmpd 1092] was over 100 µM. Under `COc1nn(CC(F)F)c2nc(N3CCC4(C3)CN(c3cnc(C(F)(F)F)nc3C)C4)cnc12` [Cmpd 1093] stands 10 to 50 µM; under `COc1nn(CC(F)F)c2nc(N3CCC4(CC3)CCN(c3cnc(C(F)(F)F)nc3C)C4)cnc12` [Cmpd 1094], under 10 µM. With `COc1nn(CC(F)F)c2nc(N3CCC4(CN(c5cc(C(F)(F)F)nc(C)n5)C4)C3)cnc12` [Cmpd 1095], the EC50 was 10 to 50 µM. The compound `COc1nn(CC(F)F)c2nc(N3CCC4(CCN(c5cc(C(F)(F)F)nc(C)n5)C4)CC3)cnc12` [Cmpd 1096] registered an EC50 of under 10 µM. With `COc1nn(CC(F)F)c2nc(N3CCC4(CN(c5cc(C)nc(C(F)(F)F)n5)C4)C3)cnc12` [Cmpd 1097], the EC50 lay in the range of 10 to 50 µM. Turning to `COc1nn(CC(F)F)c2nc(N3CCC4(CCN(c5cc(C)nc(C(F)(F)F)n5)C4)CC3)cnc12` [Cmpd 1098], the EC50 is under 10 µM. `CCn1c(N2CCC3(CCN(c4ccnc(C(F)(F)F)c4)C3)CC2)nc2c(cnn2CC(F)F)c1=O` [Cmpd 1099] showed an EC50 of under 10 µM. With `CCn1c(N2CCC3(CCN(c4ccnc(C(F)(F)F)c4)C3)C2)nc2c(cnn2CC(F)F)c1=O` (stereo not shown) [Cmpd 1100], the EC50 is 10 to 50 µM. The compound `CCn1c(N2CCC3(CN(c4ccnc(C(F)(F)F)c4)C3)C2)nc2c(cnn2CC(F)F)c1=O` [Cmpd 1101] showed an EC50 of 10 to 50 µM. Under `CCn1c(N2CCC3(CCN(c4cc(C(F)(F)F)nc(C)n4)C3)CC2)nc2c(cnn2CC(F)F)c1=O` [Cmpd 1102] stands under 10 µM; under `CCn1c(N2CCC3(CN(c4cc(C(F)(F)F)nc(C)n4)C3)C2)nc2c(cnn2CC(F)F)c1=O` [Cmpd 1103], under 10 µM; under `Cc1nn(CC(F)F)c2nc(N3CCC4(CCN(c5ccnc(C(F)(F)F)c5)C4)CC3)n(C)c(=O)c12` [Cmpd 1104], 10 to 50 µM. The value for `CCn1c(N2CCC3(CCN(c4cc(C)nc(C(F)(F)F)n4)C3)CC2)nc2c(cnn2CC(F)F)c1=O` [Cmpd 1105] was under 10 µM.

Consider `CCCn1c(N2CCC3(CCN(c4cc(C(F)(F)F)nc(C)n4)C3)CC2)nc2c(cnn2CC(F)F)c1=O` [Cmpd 1106], for which the EC50 was under 10 µM. The value for `Cc1nc(N2CCC3(CCN(c4nc5c(cnn5CC(F)F)c(=O)n4CC(C)C)CC3)C2)cc(C(F)(F)F)n1` [Cmpd 1107] was under 10 µM; that for `Cc1nc(N2CCC3(CCN(c4nc5c(cnn5CC(F)F)c(=O)n4CC4CC4)CC3)C2)cc(C(F)(F)F)n1` [Cmpd 1108] was under 10 µM; that for `CCn1c(N2CCC3(CCN(c4cc(C(F)(F)F)nc(C)n4)C3)CC2)nc2c(cnn2C2COC2)c1=O` [Cmpd 1110] was 50 to 100 µM.

Regarding `CCCn1c(N2CCC3(CN(c4cc(C(F)(F)F)nc(C)n4)C3)C2)nc2c(cnn2CC(F)F)c1=O` [Cmpd 1111], the EC50 fell in the range of 10 to 50 µM. The value for `Cc1nc(N2CC3(CCN(c4nc5c(cnn5CC(F)F)c(=O)n4CC(C)C)C3)C2)cc(C(F)(F)F)n1` [Cmpd 1112] was under 10 µM. For `Cc1nc(N2CC3(CCN(c4nc5c(cnn5CC(F)F)c(=O)n4CC4CC4)C3)C2)cc(C(F)(F)F)n1` [Cmpd 1113], the EC50 lay in the range of 10 to 50 µM. `CCn1c(N2CCC3(CN(c4cc(C(F)(F)F)nc(C)n4)C3)C2)nc2c(cnn2CC(F)(F)F)c1=O` [Cmpd 1114] showed an EC50 of under 10 µM. The compound `CCn1c(N2CCC3(CN(c4cc(C(F)(F)F)nc(C)n4)C3)C2)nc2c(cnn2C2COC2)c1=O` [Cmpd 1115] displayed an EC50 of 10 to 50 µM. The value for `CC(F)(F)Cn1ncc2ncc(N3CCC4(CN(c5ccnc(C(F)(F)F)c5)C4)C3)nc21` [Cmpd 1116] was 10 to 50 µM; that for `Cc1nc(N2CC3(CCN(c4cnc5cnn(CC(C)(F)F)c5n4)C3)C2)cc(C(F)(F)F)n1` [Cmpd 1117] was over 100 µM; that for `Cc1nc(N2CC3(CCN(c4cncc(-c5ccn(CC(F)F)n5)n4)C3)C2)cc(C(F)(F)F)n1` [Cmpd 1118] was over 100 µM. Under `Cc1nc(N2CC3(CCN(c4cncc(-c5ccnn5CC(F)F)n4)C3)C2)cc(C(F)(F)F)n1` [Cmpd 1119] stands 10 to 50 µM.
